Reference: patent US20240043706A1, “ACTIVE ENERGY RAY-CURABLE INKJET INK FOR BEVERAGE CONTAINER, ACTIVE ENERGY RAY-CURABLE INKJET INK SET, AND IMAGE RECORDING METHOD” (FUJIFILM CORPORATION, priority 2021, published 2024)

assay: Specific gravity of polymerizable monomer (gravimeter); assay type: physicochemical; settings: not given
Procedure: Among these, the polymerizable monomer preferably includes a polymerizable monomer having a specific gravity of 1.0 or less.
In the present disclosure, the specific gravity is measured using a gravimeter, for example, a high precision electronic gravimeter (model number “EW-300SG”, manufactured by Alfa Mirage).

| Molecule | Specific gravity |
| --- | --- |
| C=CC(=O)OCC1(CC)COCOC1 [CTFA, cyclic trimethylolpropane formal acrylate] | 1.09 g/mL |
| C=CC(=O)OC1CCCCC1 [Cyclohexyl acrylate] | 0.98 g/mL |
| C=CC(=O)OCCCCCCCCCCOC(=O)C=C [Decanediol diacrylate] | 0.968 g/mL |
| C=CC(=O)OCCC(C)CCOC(=O)C=C [Example 3MPDDA] | 1.03 g/mL |
| C=CC(=O)OCCCCO [Example 4-HBA] | 1.04 g/mL |
| C=CC(=O)O[C@@H]1C[C@H]2CC[C@]1(C)C2(C)C [Isobornyl acrylate] | 0.987 g/mL |
| C=CC(=O)OCCCCCCCC(C)C [Isodecyl acrylate] | 0.88 g/mL |
| C=CC(=O)OCCCCCCC(C)C [Isononyl acrylate] | 0.885 g/mL |
| C=CC(=O)OCCCCCCCCCCCCCCCC(C)C [Isostearyl acrylate] | 0.871 g/mL |
| C=CC(=O)OCCCCCCCCCCCC [Lauryl acrylate] | 0.875 g/mL |
| C=CC(=O)N(C)C [N,N-Dimethylacrylamide] | 0.964 g/mL |
| C=CC(=O)NC(C)C [N-Isopropyl acrylamide] | 0.89 g/mL |
| C=CC(=O)OCCCCCCCCC [Nonyl acrylate] | 0.875 g/mL |
| C=CC(=O)OCCCCCCCCCCCCCCCCCC [Stearyl acrylate] | 0.86 g/mL |
| C=CC(=O)OCCOCCOCCOC(=O)C=C [TEGDA] | 1.05 g/mL |
| C=COCCOCCOCCOC=C [Triethylene glycol divinyl ether] | 1.00 g/mL |
| C=CC(=O)OCCCCCCCC [n-Octyl acrylate] | 0.894 g/mL |
| Tricyclohexyl acrylate | 0.93 g/mL |
| t-Butylcyclohexyl acrylate | 0.941 g/mL |

same assay, conditions: listed as DDDA

| Molecule | Specific gravity |
| --- | --- |
| C=CC(=O)OCCCCCCCCCCOC(=O)C=C [Decanediol diacrylate] | 0.97 g/mL |

assay: Surface tension of surfactant added at 0.5% by mass to CTFA (plate method, 25° C.); assay type: physicochemical; settings: neat CTFA
Procedure: In the present disclosure, the “polymerizable surfactant” refers to a surfactant having a polymerizable group. In the present disclosure, the “surfactant” refers to a compound in which, in a case of adding the compound in an addition amount of 0.5% by mass with respect to cyclic trimethylolpropane formal acrylate (hereinafter, referred to as “CTFA”), a surface tension is reduced 1 mN/m or more. The surface tension is measured by a plate method at 25° C. using a surface tension meter, and for example, can be measured using an automatic surface tension meter (product name “DY-300”) manufactured by Kyowa Interface Science Co., Ltd. A surface tension of CTFA is 36.5 mN/m. […]
With regard to a product in which the content of the surfactant is not 100% by mass (for example, a product containing a solvent other than the surfactant), the content of the surfactant is adjusted to 100% by mass, and the surface tension is measured using the surfactant alone. […]
In Tables 1 to 10, “Polyfunctional monomer/polymerizable surfactant” indicates the mass ratio of the content of the polyfunctional monomer to the content of the polymerizable surfactant. […] The surface tension reduction relative to CTFA was calculated based on the following expression.

| Molecule | Surface tension of CTFA |
| --- | --- |
| C=CC(=O)OCC1(CC)COCOC1 [CTFA, cyclic trimethylolpropane formal acrylate] | 36.5 mN/m |
